Structures can show the parent of a compound that is named as a salt. Where two headings read alike, the source gives them in different places.
Assays:
Format in all cases: biochemical
[1] = target: T1, human JAK1 (a.a. 837-1142) (Homo sapiens, UniProt P23458); experiment: In vitro JAK kinase assay (HTRF, phosphorylation of a biotinylated peptide), JAK1; conditions: read-out: JAK1 IC50
T1 construct: human JAK1 (a.a. 837-1142); His tag (N); made in house; host or cells: insect cells (baculovirus)
Method in brief: (§1)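 Kinase activity was measured as phosphorylation of a biotinylated peptide, with ATP at 90 μM for JAK1, 30 μM for JAK2 and 3 μM for JAK3. Reactions ran 1 hr at room temperature, were stopped with EDTA plus SA-APC and Eu-Py20, and were read by HTRF after 40 minutes of antibody binding.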

[2] = target: T2, human JAK2 (a.a. 828-1132) (Homo sapiens, UniProt O60674); experiment: In vitro JAK kinase assay (HTRF, phosphorylation of a biotinylated peptide), JAK2
T2 construct: JAK2 (a.a. 828-1132); His tag (N); made in house; host or cells: insect cells (baculovirus)
Method in brief: as §1

[3] = target: T3, human JAK3 (a.a. 781-1124) (Homo sapiens, UniProt P52333); experiment: In vitro JAK kinase assay (HTRF, phosphorylation of a biotinylated peptide), JAK3
T3 construct: JAK3 (a.a. 781-1124); His tag (N); made in house; host or cells: insect cells (baculovirus)
Method in brief: as §1

TYK2 = TYK2 (Homo sapiens, UniProt P29597); experiment: TYK2 kinase inhibition (Table A1)
[4] = target: T4, Recombinant Human Anaplastic Lymphoma Kinase (Homo sapiens, UniProt Q9UM73); experiment: ALK HTRF kinase assay
T4 construct: purchased Invitrogen, Carlsbad, Calif
Method in brief: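 Recombinant human ALK phosphorylated a biotinylated synthetic peptide. Phosphotyrosine was detected by TR-FRET between a Eu-labelled anti-phosphotyrosine antibody and streptavidin-allophycocyanin. IC50 values came from fitting signal against inhibitor concentration to a four-parameter logistic equation with variable Hill slope.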

[5] = method AA1 (90 μM ATP) or AA2 (1000 μM ATP), not stated per value
[6] = method AA1 (30 μM ATP) or AA2 (1000 μM ATP), not stated per value
[7] = method AA1 (3 μM ATP) or AA2 (1000 μM ATP), not stated per value
[8] = compound at 500 nM or 1 mM, 90 μM ATP
[9] = compound at a concentration of 500 nM or 1 mM (not specified), cells shown as percentage
[10] = Table B1, cells without percent sign

T1 sequence (P23458 849-1154): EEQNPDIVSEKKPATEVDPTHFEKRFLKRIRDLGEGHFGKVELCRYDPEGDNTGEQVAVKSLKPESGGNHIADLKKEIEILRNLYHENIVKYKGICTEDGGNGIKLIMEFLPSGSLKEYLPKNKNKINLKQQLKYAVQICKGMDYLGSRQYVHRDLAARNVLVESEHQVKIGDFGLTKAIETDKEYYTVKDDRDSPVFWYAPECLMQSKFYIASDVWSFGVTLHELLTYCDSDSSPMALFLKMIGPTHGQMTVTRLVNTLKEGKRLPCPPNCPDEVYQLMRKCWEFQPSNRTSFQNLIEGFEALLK
T3 sequence (P52333 781-1124): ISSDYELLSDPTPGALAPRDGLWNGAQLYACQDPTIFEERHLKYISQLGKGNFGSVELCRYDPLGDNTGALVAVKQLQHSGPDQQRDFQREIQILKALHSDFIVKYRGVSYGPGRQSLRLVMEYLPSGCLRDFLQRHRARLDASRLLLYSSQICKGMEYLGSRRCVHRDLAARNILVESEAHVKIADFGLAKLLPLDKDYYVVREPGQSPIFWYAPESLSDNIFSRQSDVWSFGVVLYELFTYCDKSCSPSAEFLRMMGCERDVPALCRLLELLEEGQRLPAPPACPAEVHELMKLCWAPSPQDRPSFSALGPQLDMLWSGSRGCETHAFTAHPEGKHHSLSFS
TYK2, sequence (P29597 whole entry): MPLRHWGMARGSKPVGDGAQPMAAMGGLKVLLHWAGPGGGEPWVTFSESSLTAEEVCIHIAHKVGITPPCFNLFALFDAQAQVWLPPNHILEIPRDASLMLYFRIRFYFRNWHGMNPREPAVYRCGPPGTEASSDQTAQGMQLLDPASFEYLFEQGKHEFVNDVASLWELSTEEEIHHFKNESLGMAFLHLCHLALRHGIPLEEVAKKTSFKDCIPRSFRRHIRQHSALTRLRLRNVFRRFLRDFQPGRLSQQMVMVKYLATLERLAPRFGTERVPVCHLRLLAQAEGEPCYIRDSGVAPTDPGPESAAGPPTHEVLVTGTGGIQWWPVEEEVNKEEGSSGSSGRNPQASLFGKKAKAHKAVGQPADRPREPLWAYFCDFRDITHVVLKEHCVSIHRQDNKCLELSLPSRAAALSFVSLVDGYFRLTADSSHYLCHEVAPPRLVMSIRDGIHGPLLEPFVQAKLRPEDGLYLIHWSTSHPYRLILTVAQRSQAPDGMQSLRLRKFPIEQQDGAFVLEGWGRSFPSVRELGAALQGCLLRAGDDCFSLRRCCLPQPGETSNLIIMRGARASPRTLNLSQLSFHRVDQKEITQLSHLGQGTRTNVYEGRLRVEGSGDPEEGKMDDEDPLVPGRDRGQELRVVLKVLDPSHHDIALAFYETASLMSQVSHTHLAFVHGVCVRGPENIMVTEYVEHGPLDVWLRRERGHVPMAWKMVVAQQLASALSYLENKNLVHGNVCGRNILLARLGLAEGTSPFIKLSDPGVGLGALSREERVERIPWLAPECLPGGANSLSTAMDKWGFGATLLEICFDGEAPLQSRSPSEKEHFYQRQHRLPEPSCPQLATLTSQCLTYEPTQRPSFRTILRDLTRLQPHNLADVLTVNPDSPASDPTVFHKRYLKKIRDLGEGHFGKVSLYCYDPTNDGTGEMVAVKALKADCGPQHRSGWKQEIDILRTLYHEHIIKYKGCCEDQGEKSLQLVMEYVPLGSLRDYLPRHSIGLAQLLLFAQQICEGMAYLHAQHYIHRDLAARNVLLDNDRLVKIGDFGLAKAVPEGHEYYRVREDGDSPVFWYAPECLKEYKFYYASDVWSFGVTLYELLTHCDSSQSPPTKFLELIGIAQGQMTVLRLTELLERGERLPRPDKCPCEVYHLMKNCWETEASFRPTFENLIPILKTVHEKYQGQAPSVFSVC
T2 sequence (O60674 828-1132): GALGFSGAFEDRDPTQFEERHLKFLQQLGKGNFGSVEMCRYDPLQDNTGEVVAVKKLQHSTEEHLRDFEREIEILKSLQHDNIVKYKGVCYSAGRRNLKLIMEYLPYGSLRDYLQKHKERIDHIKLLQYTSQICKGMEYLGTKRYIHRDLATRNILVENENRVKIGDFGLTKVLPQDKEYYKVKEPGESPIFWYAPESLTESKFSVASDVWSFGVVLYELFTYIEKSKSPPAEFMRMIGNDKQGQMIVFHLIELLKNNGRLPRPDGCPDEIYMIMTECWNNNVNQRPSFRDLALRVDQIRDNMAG
T4 sequence (Q9UM73 19-1620): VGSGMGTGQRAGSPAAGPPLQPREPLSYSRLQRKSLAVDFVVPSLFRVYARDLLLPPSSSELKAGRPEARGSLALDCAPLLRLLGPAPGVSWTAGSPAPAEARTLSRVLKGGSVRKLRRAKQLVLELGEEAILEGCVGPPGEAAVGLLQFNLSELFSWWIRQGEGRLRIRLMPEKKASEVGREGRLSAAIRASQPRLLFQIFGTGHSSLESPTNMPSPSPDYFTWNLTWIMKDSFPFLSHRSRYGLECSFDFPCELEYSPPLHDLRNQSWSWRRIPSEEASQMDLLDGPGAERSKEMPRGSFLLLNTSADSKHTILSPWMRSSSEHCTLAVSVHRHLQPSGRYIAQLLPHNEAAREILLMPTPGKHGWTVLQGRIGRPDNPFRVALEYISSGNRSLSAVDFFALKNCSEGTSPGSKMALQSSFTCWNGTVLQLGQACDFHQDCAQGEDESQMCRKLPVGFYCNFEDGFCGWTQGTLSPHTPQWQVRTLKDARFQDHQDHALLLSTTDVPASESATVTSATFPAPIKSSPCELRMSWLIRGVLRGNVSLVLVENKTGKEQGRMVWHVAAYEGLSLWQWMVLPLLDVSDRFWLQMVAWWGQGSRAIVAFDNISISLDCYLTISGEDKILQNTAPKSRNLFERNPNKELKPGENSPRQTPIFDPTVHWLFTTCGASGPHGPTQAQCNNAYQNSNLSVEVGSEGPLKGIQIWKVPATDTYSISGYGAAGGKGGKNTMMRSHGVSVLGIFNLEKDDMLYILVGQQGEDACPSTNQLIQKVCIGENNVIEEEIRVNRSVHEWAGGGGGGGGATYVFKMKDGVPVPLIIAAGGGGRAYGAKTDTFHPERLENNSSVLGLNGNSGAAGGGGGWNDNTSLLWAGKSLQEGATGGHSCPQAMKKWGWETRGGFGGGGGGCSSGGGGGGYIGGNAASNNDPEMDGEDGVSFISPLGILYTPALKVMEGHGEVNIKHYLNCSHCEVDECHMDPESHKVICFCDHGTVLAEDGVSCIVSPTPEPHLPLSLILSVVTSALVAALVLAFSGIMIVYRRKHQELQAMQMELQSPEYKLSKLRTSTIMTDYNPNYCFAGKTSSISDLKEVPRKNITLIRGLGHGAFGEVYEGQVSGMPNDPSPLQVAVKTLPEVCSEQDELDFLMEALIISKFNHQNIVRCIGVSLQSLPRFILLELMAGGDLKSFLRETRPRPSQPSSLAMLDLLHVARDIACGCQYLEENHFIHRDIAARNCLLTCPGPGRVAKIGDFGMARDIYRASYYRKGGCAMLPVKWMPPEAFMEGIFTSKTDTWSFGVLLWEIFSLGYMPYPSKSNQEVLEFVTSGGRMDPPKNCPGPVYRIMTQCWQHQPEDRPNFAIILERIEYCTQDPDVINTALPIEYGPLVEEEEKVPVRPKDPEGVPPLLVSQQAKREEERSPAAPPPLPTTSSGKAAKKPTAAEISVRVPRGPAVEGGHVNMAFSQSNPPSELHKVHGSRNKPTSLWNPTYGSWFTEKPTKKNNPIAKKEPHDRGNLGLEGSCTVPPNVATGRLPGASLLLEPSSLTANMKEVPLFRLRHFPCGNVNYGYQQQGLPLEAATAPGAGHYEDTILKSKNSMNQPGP

Row | Compound | IC50 [1, 5] | IC50 [2, 6] | IC50 [3, 7] | IC50 (TYK2) | ALK % of inhibition at a concentration of 500 nM or 1 mM [4, 8] | IC50 ([1]; Table B1) | IC50 ([2]; Table B1) | IC50 ([3]; Table B1) | IC50 (TYK2; Table B1) | ALK % of inhibition at a concentration of 500 nM or 1 mM [4, 9] | other results
1 | CC(C)c1cc(C(=O)N2CCC(CC(=O)Nc3ccc4cc3CCc3cncc(c3)Nc3ncc(Cl)c(n3)N4)CC2)no1 [Example A214, N-[6-Chloro-2,4,8,18,22-pentaazatetracyclo[14.3.1.1(3,7).1(9,13)]docosa-1(20),3(22),4,6,9(21),10,12,16,18-nonaen-12-yl]-2-{1-[(5-isopropylisoxazol-3-yl)carbonyl]piperidin-4-yl}acetamide bis(trifluoroacetate)] | 50 nM | > 200 nM | > 200 nM | > 200 nM | 15% | – | – | – | – | – | –
2 | CCNC(=O)N1CCCC(C(=O)Nc2ccc3cc2CCc2cccc(c2)Nc2ncc(Cl)c(n2)N3)C1 (centres unmarked) [Example A49, N(3)-[6-Chloro-2,4,8,22-tetraazatetracyclo[14.3.1.1(3,7).1(9,13)]docosa-1(20),3(22),4,6,9(21),10,12,16,18-nonaen-12-yl]-N(1)-ethylpiperidine-1,3-dicarboxamide trifluoroacetate] | 14 nM | 7.5 nM | 11 nM | 39 nM | 24% | – | – | – | – | – | –
3 | O=C(CC1CCNCC1)Nc1ccc2cc1CCc1cncc(c1)Nc1ncc(Cl)c(n1)N2 [Example A71, N-[6-Chloro-2,4,8,18,22-pentaazatetracyclo[14.3.1.1(3,7).1(9,13)]docosa-1(20),3(22),4,6,9(21),10,12,16,18-nonaen-12-yl]-2-piperidin-4-ylacetamide tris(trifluoroacetate)] | 19 nM | 69 nM | 112 nM | 57 nM | 26% | – | – | – | – | – | –
4 | N#Cc1cc(F)c(Cl)nc1N1CCC(CC(=O)Nc2ccc3cc2CCc2cncc(c2)Nc2ncc(Cl)c(n2)N3)CC1 [Example A241, 2-[1-(6-Chloro-3-cyano-5-fluoropyridin-2-yl)piperidin-4-yl]-N-[6-chloro-2,4,8,18,22-pentaazatetracyclo[14.3.1.1(3,7).1(9,13)]docosa-1(20),3(22),4,6,9(21),10,12,16,18-nonaen-12-yl]acetamide tris(trifluoroacetate)] | 42 nM | > 400 nM | > 400 nM | > 400 nM | 14% | – | – | – | – | – | –
5 | Cc1cc(C(=O)N2CCN(CC(=O)Nc3ccc4cc3CCc3cncc(c3)Nc3ncc(Cl)c(n3)N4)CC2)no1 [Example A119, N-[6-Chloro-2,4,8,18,22-pentaazatetracyclo[14.3.1.1(3,7).1(9,13)]docosa-1(20),3(22),4,6,9(21),10,12,16,18-nonaen-12-yl]-2-{4-[(5-methylisoxazol-3-yl)carbonyl]piperazin-1-yl}acetamide tris(trifluoroacetate)] | 3.6 nM | 16 nM | 174 nM | 8.6 nM | 15% | – | – | – | – | – | –
6 | O=C(Nc1nccs1)c1cc2cc(c1)OCCSc1cccc(c1)Nc1nc(ncc1Cl)N2 [Example D54, 6-Chloro-N-1,3-thiazol-2-yl-17-oxa-14-thia-2,4,8,24-tetraazatetracyclo[16.3.1.1(3,7).1(9,13)]tetracosa-1(22),3(24),4,6,9(23),10,12,18,20-nonaene-20-carboxamide trifluoroacetate] | – | – | – | – | – | – | – | – | – | – | IC50 ([1]; Table D1): 18 nM; IC50 ([2]; Table D1): 15 nM; IC50 ([3]; Table D1): 132 nM; IC50 (TYK2; Table D1): 27 nM; IC50 ([4]; Table D1, 90 μM ATP): 1220 nM
7 | O=C(CC1CCN(C(=O)c2cnon2)CC1)Nc1ccc2cc1CCc1cncc(c1)Nc1ncc(Cl)c(n1)N2 [Example A138, N-[6-Chloro-2,4,8,18,22-pentaazatetracyclo[14.3.1.1(3,7).1(9,13)]docosa-1(20),3(22),4,6,9(21),10,12,16,18-nonaen-12-yl]-2-[1-(1,2,5-oxadiazol-3-ylcarbonyl)piperidin-4-yl]acetamide bis(trifluoroacetate)] | 2 nM | 7.2 nM | 30 nM | 8 nM | 46% | – | – | – | – | – | –
8 | N#Cc1ccc2cc1OCCSc1cccc(c1)Nc1nc(ncc1Cl)N2 [Example D81, 6-Chloro-17-oxa-14-thia-2,4,8,24-tetraazatetracyclo[16.3.1.1(3,7).1(9,13)]tetracosa-1(22),3(24),4,6,9(23),10,12,18,20-nonaene-19-carbonitrile trifluoroacetate] | – | – | – | – | – | – | – | – | – | – | IC50 ([1]; Table D1): 12 nM; IC50 ([2]; Table D1): 16 nM; IC50 ([3]; Table D1): 130 nM; IC50 (TYK2; Table D1): 53 nM; IC50 ([4]; Table D1, 90 μM ATP): > 10000 nM

The next lines start with results.

Row | IC50 [1, 5] | IC50 [2, 6] | IC50 [3, 7] | IC50 (TYK2) | ALK % of inhibition at a concentration of 500 nM or 1 mM [4, 8] | IC50 ([1]; Table B1) | IC50 ([2]; Table B1) | IC50 ([3]; Table B1) | IC50 (TYK2; Table B1) | ALK % of inhibition at a concentration of 500 nM or 1 mM [4, 9] | Compound | other results
9 | – | – | – | – | – | 2.9 nM | 3.3 nM | 48 nM | 9.8 nM | 19% | O=C(Nc1ccc2cc1CCc1cccc(c1)Nc1ncc(Cl)c(n1)N2)NC1CCCCC1 [Example B119, N-[6-Chloro-2,4,8,22-tetraazatetracyclo[14.3.1.1(3,7).1(9,13)]docosa-1(20), 3(22),4,6,9(21),10,12,16,18-nonaen-12-yl]-N′-cyclohexylurea trifluoroacetate] | –
10 | – | – | – | – | – | 0.41 nM | 0.15 nM | 6.3 nM | 0.86 nM | – | Cc1ccc(S(=O)(=O)Nc2ccc3cc2CCc2cccc(c2)Nc2ncc(Cl)c(n2)N3)cc1 [Example B150, N-[6-Chloro-2,4,8,22-tetraazatetracyclo[14.3.1.1(3,7).1(9,13)]docosa-1(20), 3(22),4,6,9(21),10,12,16,18-nonaen-12-yl]-4-methylbenzenesulfonamide trifluoroacetate] | IC50 [4, 10]: 180 nM
11 | – | – | – | – | – | 13 nM | 26 nM | 119 nM | 62 nM | 20% | O=C(Nc1ncc(Cl)s1)Nc1ccc2cc1CCc1cccc(c1)Nc1ncc(Cl)c(n1)N2 [Example B252, N-[6-Chloro-2,4,8,22-tetraazatetracyclo[14.3.1.1(3,7).1(9,13)]docosa-1(20),3(22),4,6,9(21),10,12,16,18-nonaen-12-yl]-N′-(5-chloro-1,3-thiazol-2-yl)urea trifluoroacetate] | –
12 | – | – | – | – | – | 43 nM | > 200 nM | > 200 nM | > 200 nM | 51% | O=C(Nc1ccc2cc1CCc1cncc(c1)Nc1ncc(Cl)c(n1)N2)N1CCN(C(=O)c2ccccc2)CC1 [Example B286, 4-Benzoyl-N-[6-chloro-2,4,8,18,22-pentaazatetracyclo[14.3.1.1(3,7).1(9,13)]docosa-1(20),3(22),4,6,9(21),10,12,16,18-nonaen-12-yl]piperazine-1-carboxamide bis(trifluoroacetate)] | –
13 | – | – | – | – | – | 4.5 nM | 10 nM | 26 nM | 19 nM | 39% | COc1ccc(NC(=O)Nc2ccc3cc2CCc2cccc(c2)Nc2ncc(Cl)c(n2)N3)cc1 [Example B101, N-[6-Chloro-2,4,8,22-tetraazatetracyclo[14.3.1.1(3,7).1(9,13)]docosa-1(20), 3(22),4,6,9(21),10,12,16,18-nonaen-12-yl]-N′-(4-methoxyphenyl)urea trifluoroacetate] | –
14 | – | – | – | – | – | 24 nM | 61 nM | > 400 nM | 44 nM | – | N#Cc1ccc(N2CCN(C(=O)Nc3ccc4cc3CCc3cncc(c3)Nc3ncc(Cl)c(n3)N4)CC2)nc1 [Example B310, N-[6-Chloro-2,4,8,18,22-pentaazatetracyclo[14.3.1.1(3,7).1(9,13)]docosa-1(20),3(22),4,6,9(21),10,12,16,18-nonaen-12-yl]-4-(5-cyanopyridin-2-yl)piperazine-1-carboxamide tris(trifluoroacetate)] | ALK % of inhibition at a concentration of 500 nM or 1 mM ([4]; percentage inhibition of the example compound at a concentration of 500 nM or 1 mM (not specified which)): 74%
15 | – | – | – | – | – | 4 nM | 5.3 nM | 61 nM | 9.7 nM | – | Cc1ccc(NC(=O)Nc2ccc3cc2CCc2cccc(c2)Nc2ncc(Cl)c(n2)N3)cc1 [Example B92, N-[6-Chloro-2,4,8,22-tetraazatetracyclo[14.3.1.1(3,7).1(9,13)]docosa-1(20),3(22),4,6,9(21),10,12,16,18-nonaen-12-yl]-N′-(4-methylphenyl)urea trifluoroacetate] | IC50 [4, 10]: > 1000 nM
16 | – | – | – | – | – | 1.9 nM | 4.9 nM | 24 nM | 9.6 nM | 43% | O=C(Nc1ccc2cc1CCc1cccc(c1)Nc1ncc(Cl)c(n1)N2)c1ccc2c(c1)OCO2 [Example B71, N-[6-Chloro-2,4,8,22-tetraazatetracyclo[14.3.1.1(3,7).1(9,13)]docosa-1(20), 3(22),4,6,9(21),10,12,16,18-nonaen-12-yl]-1,3-benzodioxole-5-carboxamide trifluoroacetate] | –

Source: patent US8871753B2, “Macrocyclic compounds and their use as kinase inhibitors” (Incyte Corporation, priority 2008, dated 2014)
